In patent US20230250055A1, “PROCESS OF MAKING N,N-DIACETYL-L-CYSTINE DISODIUM SALT FROM CYSTINE AND ACETYL CHLORIDE IN METHANOL IN THE PRESENCE OF SODIUM HYDROXIDE” (Conopco, Inc., d/b/a UNILEVER, priority 2020, published 2023):

Experiments:
skin cells = assay: potentiating glutathione synthesis within skin cells; type: cell-based; conditions: compared with cystine
[1] = solubility of NDAC relative to cystine; type: physicochemical
[2] = organic solvents such as alcohols, ethers, esters, ketones; cited from earlier work

| SMILES | performance for potentiating glutathione synthesis within skin cells (skin cells) | solubility compared with cystine [1] | solubility in organic solvents [2] |
| --- | --- | --- | --- |
| CC(=O)N[C@@H](CSSC[C@H](NC(C)=O)C(=O)O)C(=O)O [NDAC, N,N′-diacetyl-L-cystine] | comparable to that of cystine | more soluble | – |
| N[C@@H](CSSC[C@H](N)C(=O)O)C(=O)O [cystine, L-Cystine] | – | – | practically insoluble |
